Series [1] relates to antibody-secreting plaque-forming splenocytes (IgG and IgM). In words: Cunningham modification of the Jerne assay (hemolytic plaque technique), IgM and IgG plaques per spleen. In kind it is in vivo, CDF1 (Balb/c × DBA/2) mice. The conditions noted are these: Table 2, 200 mg/kg. How it is done: In this example, the compounds of the invention are tested for their effect on antibody-secreting plaque-forming splenocytes (IgG and IgM) in the Cunningham modification of the Jerne assay. This technique is able to detect, in a quantitative manner, antibody producing cells in response to antigen stimulus in the host mouse. For study of […] immune response, sheep erythrocytes (SRBC) are used (as in the present Example), while for humoral immune response, SRBC coupled with pneumococcal polysaccharide is used.
CDF1 (Balb/c × DBA/2) mice are immunized with 0.1 ml. of 10^8 sheep erythrocytes (SRBC) intraperitonially 4-5 days before the assay. The mice are separated into groups, with one group serving as a control and all other groups receiving compounds of the invention. The treated mice are dosed with drug on day one. […] The spleens of the sacrificed mice are excised and washed several times in RPMI 1640 with 10% fetal bovine serum. 100 λ of spleen cells are mixed with a drop of guinea pig complement, four drops of RPMI 1640 and a drop of 25% SRBC in a microtiter plate well and then pipetted into a Cunningham chamber. On day four, for IgM determinations, the chambers are incubated for 30 minutes at 37° C. Antibody, released by the small proportion of active cells, attaches to the surrounding erythrocytes which are lysed by complement leaving a small plaque up to 0.5 mm. in diameter. Since only cells releasing IgM antibody form plaques directly, a "developing" serum must be added to be able to form and view IgG plaques. Thus fifth or sixth day cultured spleen cells are further treated with rabbit antimouse IgG and then incubated for 45 minutes. Both IgM and IgG plaques are counted under a stereomicroscope.
In Table 1 are given the IgM and IgG plaque counts per spleen for mice treated with 6-chloro-2-phenylthiazolo[2,3-b]benzothiazol-3(2H)-one mesoionic didehydro derivative and for the controls:
The assay is repeated using the following compounds of the invention: 2-phenylthiazolo[2,3-b]benzothiazol-3(2H)-one mesoionic didehydro derivative (A), 6-chloro-2-(p-chlorophenyl)-thiazolo[2,3-b]benzothiazol-3(2H)-one mesoionic didehydro derivative (B) and 6-chloro-2-phenylthiazolo[2,3-b]benzothiazol-3(2H)-one mesoionic didehydro derivative (C).

In the next series the test system is thymus gland. In words: effect on the thymus gland (thymus weight). The series is classed as in vivo, BDF1 mice. The note with it: Table 4. How it is done:
The effect of the compounds of the invention on the thymus gland is measured. BDF1 mice of 18-20 gms. weight are dosed at 150 mg/kg. with 6-chloro-2-phenylthiazolo[2,3-b]benzothiazolo-3(2H)-one mesoionic didehydro derivative for eight consecutive days. The mice are sacrificed on the ninth day, the thymus glands excised and weighed. The excised thymus glands averaged […]. as compared to […]. for the control group. […] The weight loss is also correlated to dose, and the results are as follows:
Using the same technique, the following compounds of the invention were tested: 6-chloro-2-(p-chlorophenyl)thiazolo[2,3-b]benzothiazol-3(2H)-one mesoionic didehydro derivative (A), 2-phenyl-5,6,7,8-tetrahydrothiazolo[2,3-b]benzothiazol-3(2H)-one mesoionic didehydro derivative (B), 2-phenylthiazolo[2,3-b]-benzothiazol-3(2H)-one mesoionic didehydro derivative (C),6-chloro-2-trifluoroacetylthiazolo[2,3-b]benzothiazol-3(2H)-one mesoionic didehydro derivative (D), 6-chloro-3-hydroxy-2-phenylthiazolo[2,3-b]benzothiazolium bromide (E), 7-ethoxy-3-hydroxy-2-phenylthiazolo[2,3-b]benzothiazolium bromide (F), 3-hydroxy-2-phenylthiazolo[2,3-b]benzothiazolium bromide (G), and 3-hydroxy-2-phenyl-5,6,7,8-tetrahydrothiazolo[2,3-b]benzothiazolium bromide (H).

Another series deals with hemolytic anemia. In words: autoimmune hemolytic anemia model, serum immunoglobulins. The note with it: for ANA (antinuclear antibody), 1st Reading / IgG, 1st Reading / IgM, 1st Reading: 1st Reading (156 Days); for ANA (antinuclear antibody), 1st Reading / IgG, 1st Reading / IgM, 1st Reading / IgG, % Change / IgM, % Change: 200 mg/kg, four doses over two weeks; for IgG, % Change / IgM, % Change: 142 to 156 Days. Details: IgM, Baseline: unit not given beside the values. In kind it is in vivo, NZB mice. From the text:
NZB/W F1 mice are divided into two groups according to sex. At the initiation of drug treatment, female mice are 78.2 days old with an average weight of 30 g., while male mice are 69.5 days old with an average weight of 40 g. IgG, IgM and antinuclear antibody determinations are made on pooled samples of serum obtained by capillary bleedings of the suborbital sinus at approximately monthly intervals. The compounds of the invention are suspended in a solution of physiological saline with 0.16% CMC. All dosing is twice weekly intraperitonially.
Another autoimmune disease model, hemolytic anemia, is used to further evaluate the compounds of the invention. Thus, NZB mice, having an average age of 142 days and with well advanced hemolytic anemia, are divided into treatment groups and are dosed biweekly over a period of two weeks (four doses total) with the following compounds in the same manner as previously described: 6-chloro-2-(p-chlorophenyl)thiazolo[2,3-b]benzothiazol-3(2H)-one mesoionic didehydro derivative (A), 2-phenyl-5,6,7,8-tetrahydrothiazolo[2,3-b]benzothiazol-3(2H)-one mesoionic didehydro derivative (B), 2-phenylthiazolo[2,3-b]benzothiazol-3(2H)-one mesoionic didehydro derivative (C) and 6-chloro-2-trifluoroacetylthiazolo[2,3-b]benzothiazol-3(2H)-one mesoionic didehydro derivative (D). The immunoglobulin values from serum samples are compared with the baseline (pretreatment) for each group and the results are summarized in Table 10: […]

For series [2], the system named is delayed hypersensitivity reaction. Description: guinea pig delayed hypersensitivity assay (PPD). The series is classed as in vivo, Male Hartley strain guinea pigs. The conditions noted are these: 50 mg/kg orally, read 24 hours after challenge, * = p < 0.05.
The test system of series [3] is autoimmune disease (systemic lupus erythematosus). Description: autoimmune disease (systemic lupus erythematosus), immunoglobulin determinations, male NZB/W mice. In kind it is in vivo, male NZB/W F1 mice. The note with it: A 100 mg/kg, levamisole 25 mg/kg, i.p. twice weekly. The method, then:
(§1) The effect of the compounds of the invention on the development and progress of autoimmune disease (systemic lupus erythematosus) in the New Zealand F1 hydrid mouse (NZB×NZW) is evaluated. NZB/W F1 mice are divided into two groups according to sex. […] IgG, IgM and antinuclear antibody determinations are made on pooled samples of serum obtained by capillary bleedings of the suborbital sinus at approximately monthly intervals. The compounds of the invention are suspended in a solution of physiological saline with 0.16% CMC. All dosing is twice weekly intraperitonially. […] Immunoglobulin values from serum samples are compared with the baseline (pretreatment) for each group.

The test system is the same in series [4]. In words: autoimmune disease (systemic lupus erythematosus), immunoglobulin determinations, female NZB/W mice. In kind it is in vivo, female NZB/W F1 mice. The note with it: A 100 mg/kg, levamisole 25 mg/kg, i.p. twice weekly. How it is done: as §1
Setting [5] is: Baseline (142 Days), 200 mg/kg group.

As for `[O-]c1c(-c2ccccc2)sc2sc3ccccc3[n+]12` [A], in series [1] (Day 4), the “IgG, mean (total number of plaques per spleen)” value was 107,100 plaques per spleen and the “IgM, mean (total number of plaques per spleen)” value was 163,800 plaques per spleen. In series [1] (Day 5), the “IgG, mean (total number of plaques per spleen)” value is 184,590 plaques per spleen and the “IgM, mean (total number of plaques per spleen)” value is given as 97,020 plaques per spleen. Also, the “toxicity (printed in the thymus weight column)” value in the series with thymus gland (200 mg/kg) is listed as “toxic”. In the series with hemolytic anemia, the “ANA (antinuclear antibody), 1st Reading” value is listed as “neg”; the “IgG, 1st Reading” value is 570; the “IgM, 1st Reading” value is given as 176; the “IgG, % Change” value is listed as -15%. The “IgM, % Change” value in the series on hemolytic anemia is listed as “+21%”. Besides, in the series on hemolytic anemia (setting [5]), the “ANA (antinuclear antibody), Baseline” value is given as “neg”; the “IgG, Baseline” value turned out to be 674; the “IgM, Baseline” value is given as 146.

On to `[O-]c1c(-c2ccc(Cl)cc2)sc2sc3ccc(Cl)cc3[n+]12` [B], for which, in series [1] (Day 4), the “IgG, mean (total number of plaques per spleen)” value was 9,656 plaques per spleen and the “IgM, mean (total number of plaques per spleen)” value is recorded as 74,025 plaques per spleen. Further, in series [1] (Day 5), the “IgG, mean (total number of plaques per spleen)” value was 49,218 plaques per spleen and the “IgM, mean (total number of plaques per spleen)” value is recorded as 50,250 plaques per spleen. For the same compound, in the series on thymus gland (200 mg/kg), the “% Change in weight (thymus gland)” value is listed as -53% and the “Avg. weight of thymus gland” value worked out at 18.6 mg. Also, in the series on hemolytic anemia, the “ANA (antinuclear antibody), 1st Reading” value is reported as “neg”; the “IgG, 1st Reading” value was found to be 304; the “IgM, 1st Reading” value was determined as 120; the “IgG, % Change” value was -60%. For the same compound, the “IgM, % Change” value with hemolytic anemia is recorded as -32%. Further, in the series on hemolytic anemia (setting [5]), the “IgG, Baseline” value amounted to 760 and the “IgM, Baseline” value turned out to be 176.

As for `[O-]c1c(-c2ccccc2)sc2sc3ccc(Cl)cc3[n+]12` [C], in series [1] (Day 4), the “IgG, mean (total number of plaques per spleen)” value was 22,875 plaques per spleen and the “IgM, mean (total number of plaques per spleen)” value was 110,643 plaques per spleen. Further, in series [1] (Day 5), the “IgG, mean (total number of plaques per spleen)” value is recorded as 117,337 plaques per spleen and the “IgM, mean (total number of plaques per spleen)” value is on record as 55,518 plaques per spleen.

Turning to `O=P1(N(CCCl)CCCl)NCCCO1` (stereo not drawn) [Cyclophosphamide, cyclophosphamide, reference compound], the “Mean % Inhibition of Paw Edema” value in series [2] (6 hours after challenge) is 58%; in series [2] (24 hours before challenge) it was 56%.

With `O=C(c1sc2sc3ccc(Cl)cc3[n+]2c1[O-])C(F)(F)F` [D], in the series with thymus gland (200 mg/kg), the “% Change in weight (thymus gland)” value is -28% and the “Avg. weight of thymus gland” value came to 28.4 mg. In the series with hemolytic anemia, the “IgG, 1st Reading” value stood at 770; the “IgM, 1st Reading” value is listed as 190; the “IgG, % Change” value was “+8%”; the “IgM, % Change” value is listed as “+4%”. For the same compound, in the series with hemolytic anemia (setting [5]), the “IgG, Baseline” value was determined as 710 and the “IgM, Baseline” value is given as 182.

For the compound `Oc1c(-c2ccccc2)sc2sc3ccc(Cl)cc3[n+]12` [E], in the series on thymus gland (75 mg/kg), the “% Change in weight (thymus gland)” value is given as -56% and the “Avg. weight of thymus gland” value is 17.5 mg.

In the case of `[O-]c1c(-c2ccccc2)sc2sc3c([n+]12)CCCC3` [Example 11, 2-Phenyl-5,6,7,8-tetrahydrothiazolo[2,3-b]-benzothiazol-3(2H)-one mesoionic dedihydro derivative], in the series on thymus gland (200 mg/kg), the “% Change in weight (thymus gland)” value is reported as -58% and the “Avg. weight of thymus gland” value stood at 16.8 mg. Besides, in the series with hemolytic anemia, the “ANA (antinuclear antibody), 1st Reading” value was “neg”; the “IgG, 1st Reading” value was 356; the “IgM, 1st Reading” value is 134; the “IgG, % Change” value was -50%. Moreover, the “IgM, % Change” value in the series on hemolytic anemia was -31%. In addition, in the series with hemolytic anemia (setting [5]), the “IgG, Baseline” value is given as 710 and the “IgM, Baseline” value came to 194.

As for `CCOc1ccc2c(c1)sc1sc(-c3ccccc3)c(O)[n+]12` [F], in the series with thymus gland (150 mg/kg), the “% Change in weight (thymus gland)” value is -16% and the “Avg. weight of thymus gland” value was 33.3 mg.

Turning to `Oc1c(-c2ccccc2)sc2sc3ccccc3[n+]12` [G], in the series with thymus gland (75 mg/kg), the “% Change in weight (thymus gland)” value is -29% and the “Avg. weight of thymus gland” value was determined as 28.0 mg.

Regarding `Oc1c(-c2ccccc2)sc2sc3c([n+]12)CCCC3` [H], in the series with thymus gland (75 mg/kg), the “% Change in weight (thymus gland)” value was “+2%” and the “Avg. weight of thymus gland” value is 40.5 mg.

Take `c1ccc([C@H]2CN3CCSC3=N2)cc1` [Levamisole, L-(-)-2,3,5,6-tetrahydro-6-phenylimidazo[2,1-b]thiazole, reference compound]: the IgG level in series [3] (47 Days) is reported as 560 mg./100 ml; in series [3] (76 Days), 710 mg./100 ml; in series [3] (111 Days), 710 mg./100 ml; in series [3] (154 Days), 910 mg./100 ml; in series [3] (Pretreatment), 450 mg./100 ml; in series [4] (47 Days), 404 mg./100 ml. In addition, the IgG level was 490 mg./100 ml in series [4] (76 Days), 980 mg./100 ml in series [4] (111 Days), 900 mg./100 ml in series [4] (154 Days) and 460 mg./100 ml in series [4] (Pretreatment). The IgM level in series [3] (47 Days) stood at 68 mg./100 ml; in series [3] (76 Days) it was 140 mg./100 ml; in series [3] (111 Days) it was 128 mg./100 ml; in series [3] (154 Days), 142 mg./100 ml; in series [3] (Pretreatment) it was 43.5 mg./100 ml; in series [4] (47 Days), 49 mg./100 ml. Moreover, the IgM level in series [4] (76 Days) is 83 mg./100 ml; in series [4] (111 Days), 136 mg./100 ml; in series [4] (154 Days) it was 154 mg./100 ml; in series [4] (Pretreatment), 64 mg./100 ml. For the same compound, the “IgG Total Change From Baseline” value is listed as “+460 mg./100 ml” in series [3] and “+440 mg./100 ml” in series [4]. Also, the “IgM Total Change From Baseline” value is “+98.5 mg./100 ml” in series [3] and “+90 mg./100 ml” in series [4].

For the origin of these results see patent US4275065A, “Modulating the immune response with 2-substituted-3-hydroxythiazolo[2,3-b]b e” (American Home Products Corporation, priority 1980, dated 1981).
